According to patent US20230398125A1, “TREATING HEPATITIS” (Albireo AB, priority 2022, published 2023):
Marks after values point to notes of the source that are not given here.

Tests used:
Human IBAT = biological target: T1, Human IBAT (Homo sapiens, UniProt Q12908); assay: 3H-taurocholic acid uptake in human IBAT-overexpressing cells; format: cell-based; details: 3H-taurocholic acid transport
T1 construct: expressed in transfected cells; kept under puromycin selection
T1 sequence (Q12908 1-348): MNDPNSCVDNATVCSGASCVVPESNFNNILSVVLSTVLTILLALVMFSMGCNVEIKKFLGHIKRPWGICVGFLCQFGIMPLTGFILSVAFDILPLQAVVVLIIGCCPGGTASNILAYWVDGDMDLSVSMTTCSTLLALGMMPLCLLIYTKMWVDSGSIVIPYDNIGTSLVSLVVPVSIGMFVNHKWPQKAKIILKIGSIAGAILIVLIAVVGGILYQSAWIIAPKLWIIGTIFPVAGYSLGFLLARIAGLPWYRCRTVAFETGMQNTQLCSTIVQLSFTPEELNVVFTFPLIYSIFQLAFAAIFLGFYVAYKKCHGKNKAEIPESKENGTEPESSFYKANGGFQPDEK
Experimental: 10,000 cells (Human & Mouse IBAT-overexpressing cells) were seeded in 96-wells plate in 100 μL MEM-alpha medium supplemented with 10% FBS containing puromycin (10 μg/mL) and incubated at 37° C. in 5% CO2 for 48 hrs. After incubation media was decanted from the wells, cells were washed two times with 250 μL of basal MEM-alpha medium (FBS-free). After each wash, plates were tapped against paper towel to ensure maximum removal of residual media. Test inhibitor dilutions (highest test concentration being 10 μM, 3-fold serial dilution, 10 concentrations) prepared in DMSO were added to the incubation mix (maintaining 0.2% final DMSO concentration) containing 0.25 μM ^3H-taurocholic acid and 5 μM of cold taurocholic acid. […]
After incubation, the reaction was stopped by keeping the plates on ice water mix for 2-3 minutes and then the incubation mix was aspirated completely from the wells. […] 100 μL of MicroScint-20 was added to the wells and kept overnight at room temperature before reading the plates in MicroBeta2 liquid Scintillation Counter from PerkinElmer under ^3H Test for I/L-BAT protocol (set at 120 seconds reading time per well, with normal plate orientation).
Percentage inhibitions were calculated with respect to the assay controls. […]

HBV genotype C [1] = assay: Serum HBeAg in HBV-infected PXB mice; format: in vivo, hepatitis B virus; details: 10 mg/kg and 30 mg/kg, Day 14
Experimental: (§1) Target volume of blood was collected from all surviving animals under isoflurane anesthesia via the retro-orbital plexus/sinus using Intramedic™ Polyethylene Tubing at each time point. Two microliters (2 μL) from the collected blood were used for human albumin measurements. The remaining blood was centrifuged to separate serum to be used for analyzing the indicated biomarkers. Blood samples were collected according to Table 8.
(§2) The individual blood samples of the animals were left at room temperature for at least 5 minutes to coagulate and then centrifuged at 13200×g, 4° C. for 3 minutes to obtain serum. The serum was divided into separate labeled microtubes and stored at −80° C. until analysis.
Serum HBeAg concentration was determined by SRL, Inc. based on a Chemiluminescent Enzyme Immuno Assay (CLEIA) developed by Fujirebio ([…] HBeAg, […]® Prestoll). The dilution factor was 30 and 10, and the measurement range of this assay was between 0.1 and 1590 C.O.I. For the 30-fold diluted samples, the measurement range was adjusted to be between 3 and 47700 C.O.I. And for the 10-fold diluted samples, the measurement range was adjusted to be between 1 and 15900 C.O.I. The lowest quantification limit of this assay was 3.0 C.O.I.

HBV genotype C [2] = assay: Serum HBV DNA in HBV-infected PXB mice; format: in vivo, hepatitis B virus; details: for serum HBV DNA levels: HBV-infected PXB mice, group mean, assay limit 4×10^4 copies/mL serum
Experimental: as §1, §2
Real-time PCR detection was used to measure the serum HBV DNA concentration using the KUBIX HBV qPCR Kit (KUBIX Inc.) and CFX96 Touch™ Real-Time PCR Detection System (Bio-Rad Laboratories, Inc., Hercules, Calif., USA). Ten microliters (10 μL) of the HBV 2×PCR Solution were added into 10 μL of the heated sample. The initial activation was conducted at 95° C. for 2 minutes. Subsequent PCR amplification consisted of 45 cycles of denaturation at 95° C. for 5 seconds and annealing and extension at 54° C. for 30 seconds per cycle in a CFX96 Touch™ Real-Time PCR Detection System. The average serum HBV DNA level was calculated from the values of the two separate wells.
The lowest quantification limit of this assay was 4×10^4 copies/mL serum.

ASBT = biological target: T2, ASBT (Homo sapiens, UniProt Q12908); assay: [3H]taurocholate uptake, apparent Ki for ASBT; format: cell-based; details: read-out: inhibitory constant (Ki) for ASBT
T2 construct: expressed in transfected cells
T2 sequence (Q12908 1-348): T1 sequence (Q12908 1-348)

## CCCCC1CN(c2ccccc2)c2cc(SC)c(O/C=C(\F)C(=O)O)cc2S(=O)(=O)N1C (stereo not shown) [Compound 1, (Z)-3-((3-butyl-2-methyl-7-(methylthio)-1,1-dioxido-5-phenyl-2,3,4,5-tetrahydro-1,2,5-benzothiadiazepin-8-yl)oxy)-2-fluoroacrylic acid]
Human IBAT
  IC50: 535 ± 83.3 nM
HBV genotype C [1]
  serum HBeAg compared to controls: lower
HBV genotype C [2]; 30 mg/kg, Day 7
  serum HBV DNA compared to controls: lower
HBV genotype C [2]; 10 mg/kg p.o. once daily Day 0-14, Day 0 (pre-dose)
  serum HBV DNA levels: 4.0 × 10^4
HBV genotype C [2]; 10 mg/kg p.o. once daily Day 0-14, Day 7
  serum HBV DNA levels: 1.4 × 10^5
HBV genotype C [2]; 10 mg/kg p.o. once daily Day 0-14, Day 14
  serum HBV DNA levels: 8.5 × 10^5
HBV genotype C [2]; 10 mg/kg p.o. once daily Day 0-14, Day 21
  serum HBV DNA levels: 1.3 × 10^6
HBV genotype C [2]; 10 mg/kg p.o. once daily Day 0-14, Day 28
  serum HBV DNA levels: 8.5 × 10^6
HBV genotype C [2]; 10 mg/kg p.o. once daily Day 0-14, Day 35
  serum HBV DNA levels: 2.7 × 10^7*
HBV genotype C [2]; 10 mg/kg p.o. once daily Day 0-14, Day 42
  serum HBV DNA levels: 1.2 × 10^8*
HBV genotype C [2]; 30 mg/kg p.o. once daily Day 0-14, Day 0 (pre-dose)
  serum HBV DNA levels: 4.0 × 10^4
HBV genotype C [2]; 30 mg/kg p.o. once daily Day 0-14, Day 7
  serum HBV DNA levels: 6.1 × 10^4
HBV genotype C [2]; 30 mg/kg p.o. once daily Day 0-14, Day 14
  serum HBV DNA levels: 1.9 × 10^5
HBV genotype C [2]; 30 mg/kg p.o. once daily Day 0-14, Day 21
  serum HBV DNA levels: 3.1 × 10^5
HBV genotype C [2]; 30 mg/kg p.o. once daily Day 0-14, Day 28
  serum HBV DNA levels: 2.7 × 10^6
HBV genotype C [2]; 30 mg/kg p.o. once daily Day 0-14, Day 35
  serum HBV DNA levels: 1.1 × 10^7
HBV genotype C [2]; 30 mg/kg p.o. once daily Day 0-14, Day 42
  serum HBV DNA levels: 5.4 × 10^7
HBV genotype C [2]; oral dosing before HBV infection
  effect against HBV genotype C infection in PXB-mice: prophylactic effects
ASBT
  Ki: 2410 nM
